Experimental data as given in patent US12319699B2, “L-proline sulfonamide derivatives comprising pyrazolo[4,3-e]tetrazolo[4,5-b][1,2,4]triazine system, method of manufacturing thereof, uses thereof and pharmaceutical composition comprising the same” (UNIWERSYTET MEDYCZNY W BIALYMSTOKU, priority 2018, dated 2025).

How the values were obtained:
[1] = tested on: DLD-1 human colorectal cancer cells; assay: Cytotoxicity, MTT assay (Carmichael's method), cell survival; assay type: cell-based; settings: DLD-1, 24-hour incubation
Protocol: DLD-1 human colorectal cancer cells (ATCC CCL-221, Manassas, VA, USA) were grown in DMEM (Dulbecco's Modified Eagle's Medium) supplemented with 10% fetal bovine serum (FBS), 2 mM glutamine, 50 U/ml penicillin, 50 μg/ml streptomycin at 37° C., in atmosphere containing 5% of CO2. Then the cells were counted in a hemocytometer and transferred in the amount of 1×10^6 cells per well in 1 ml of culture medium from Costar flasks (Sigma, USA) to Nunc 6-well plates (Wiesbaden, Germany). The cells were transferred using calcium-free phosphate buffer with the addition of 0.05% trypsin and 0.02% EDTA. […] Within the subsequent 24 hours the cells covered at least 80% of the surface of each plate well. […]
Cytotoxicity of the examined compounds according to the invention was measured by Carmichael's method (Carmichael J et al, Cancer Res., 1987, 47:943-946) and cell viability was determined using the tetrazolium salt (MT) in MTT assay. […] In a cell lysate prepared in such manner absorbance at 630 nm was measured. The result of absorbance obtained in the control cell cultures was assumed to be 100%. The viability of cells incubated in the presence of the examined compounds was expressed as percentage of the control values. The significance level p was determined by the nonparametric Mann-Whitney U test by means of SigmaStat software. […]

[2] = tested on: DLD-1 colorectal cancer cells; assay: Decrease in mitochondrial membrane potential, JC-1 MitoScreen flow cytometry; assay type: cell-based, human; settings: 24 hours
Protocol: DLD-1 human colorectal cancer cells (ATCC CCL-221, Manassas, VA, USA) were grown in DMEM (Dulbecco's Modified Eagle's Medium) supplemented with 10% fetal bovine serum (FBS), 2 mM glutamine, 50 U/ml penicillin, 50 μg/ml streptomycin at 37° C., in atmosphere containing 5% of CO2. Then the cells were counted in a hemocytometer and transferred in the amount of 1×10^6 cells per well in 1 ml of culture medium from Costar flasks (Sigma, USA) to Nunc 6-well plates (Wiesbaden, Germany). The cells were transferred using calcium-free phosphate buffer with the addition of 0.05% trypsin and 0.02% EDTA. […] Within the subsequent 24 hours the cells covered at least 80% of the surface of each plate well. The cells prepared in this manner were incubated with the examined compounds for 24 hours and then used for further experiments.
For the assessment of changes in mitochondrial potential JC-1 MitoScreen kit (BD Biosciences. USA) was used. DLD-1 and HT-29 cancer cells covering about 80% of the plate surface were incubated with the examined compounds according to the invention at specific concentrations in an incubator at 37° C. in 5% CO2 atmosphere for 24 hours. Both examined compounds according to the invention were used at a concentration of 1.5 μM and 3.0 μM. After the incubation period, the medium was removed, the buffer included in the kit was added and the cells after washing two times were suspended in a mixture of JC-1 dye (5,5′,6,6′-tetrachloro-1,1′,3,3′-tetraethylbenzimidazol carbocyanine iodide) with a buffer at a concentration of 10 μg/ml. Subsequently, the samples were incubated in darkness for 15 minutes, washed with PBS solution and subjected to immediate analysis with the use of BD FacsCanto II flow cytometer; the results were assessed with the use of BD FacsDiva software. In live intact cells JC-1 dye accumulates in mitochondria and forms orange fluorescing aggregates. A decrease in mitochondrial potential ΔΨm is characterized by disintegration of these aggregates and green fluorescence.

[3] = tested on: DLD-1 xenografts; assay: Tumour growth in mice with xenografts; assay type: in vivo; settings: mice with DLD-1 xenografts
Protocol: (§1) The second stage of the study was carried out with the use of animals (Cby.Cg-Foxn1nu/J mice, females) (Jackson Laboratory, USA). […] All procedures were carried out in accordance with the guidelines for experiments in animals and a protocol approved by the Local Ethics Committee (Resolution No. August 2018).
(§2) The studies in in vivo conditions were carried out in the Centre of Experimental Medicine of the Medical University of Bialystok. It is a modern institution which ensures a high standard of SPF barrier animal facilities. Animals are housed in a room with […], in the optimal temperature of 22° C., 55% air humidity, with fifteen air changes per hour (with the speed not exceeding 0.3 m/s) and 12:12 light-dark cycle. The animals were under 24-hour monitoring and period controls of both the animals (in accordance with FELASA recommendations) and the rooms in which they were housed were carried out. The Centre for Experimental Medicine has a Good Laboratory Practice (GLP) certificate.
(§3) During the initial studies the mice were divided into two groups.
(§4) After the first week, when tumours reached about 5 mm in diameter, i.e. the size which according to literature data is suitable for carrying out further steps of examination, the mice began receiving subcutaneous injections of the sulfonamide derivative of 7-methyl-5-phenyl-pyrazolo[4,3-e]tetrazolo[4,5-b][1,2,4]triazine comprising 4-hydroxy-L-proline methyl ester in the sulfonamide group according to the invention (the compound of Formula 3) in a dose of 50 μg/kg once a day for two weeks. The moment of administration of the compound was marked as time 0. The control group was constituted by animals that received subcutaneously 50 μl of 10% DMSO in PBS (the solvent for the compound of Formula 3). Before the administration of the sulfonamide derivative of 7-methyl-5-phenyl-pyrazolo[4,3-e]tetrazolo[4,5-b][1,2,4]triazine comprising 4-hydroxy-L-proline methyl ester in the sulfonamide group according to the invention (time 0), after the first week (time 1) and the second week (time 2) of administering this compound, the sizes of tumours were measured in two dimensions by means of a digital calliper. The volume of tumours was expressed in mm3 in accordance with the calculations that were described by Feldman et al. (Feldman J P. Goldwasser R. Mark S. Schwartz J. Orion I. JAQM. 2009.4.455-462).

[4] = tested on: HT-29 xenografts; assay: Tumour growth in mice with xenografts; assay type: in vivo; settings: mice with HT-29 xenografts
Protocol: as §1, §2, §3, §4

[5] = Body weight of xenograft mice after two-week therapy; assay type: in vivo; settings: mice with DLD-1 and HT-29 xenografts, 50 μg/kg s.c. once a day
Protocol: as §1
as §4, with “The control group was constituted by animals that received subcutaneously 50 μl of 10% DMSO in PBS (the solvent for the compound of Formula 3).” left out, “The volume of tumours was expressed in mm3 in accordance with the calculations that were described by Feldman et al. (Feldman J P. Goldwasser R. Mark S. Schwartz J. Orion I. JAQM. 2009.4.455-462).” left out
Additionally, the effect of the compound of Formula 3 on the body weight of the animals after the two-week therapy was assessed.

[6] = Haematological analysis of xenograft mice after two-week therapy; assay type: in vivo; settings: mice with DLD-1 and HT-29 xenografts, 50 μg/kg s.c. once a day
Protocol: as §1
as §4, with “The control group was constituted by animals that received subcutaneously 50 μl of 10% DMSO in PBS (the solvent for the compound of Formula 3).” left out, “The volume of tumours was expressed in mm3 in accordance with the calculations that were described by Feldman et al. (Feldman J P. Goldwasser R. Mark S. Schwartz J. Orion I. JAQM. 2009.4.455-462).” left out

[7] = 50 μg/kg s.c. once a day for two weeks, p<0.05
[8] = 50 μg/kg s.c. once a day, after the second week, p<0.001

| SMILES | IC50 [1] | decrease of ΔΨm, % of the cell population ([2]; DLD-1, 1.5 μM) | decrease of ΔΨm, % of the cell population ([2]; DLD-1, 3.0 μM) | tumour weight post mortem vs control [3, 7] | inhibition of tumour growth (tumour volume) vs control [3, 8] | tumour weight post mortem vs control [4, 7] | inhibition of tumour growth (tumour volume) vs control [4, 8] | effect on body weight of the animals vs control [5] | haematological parameters (WBC, RBC, PLT, HCT, HGB, MCV, MCH, MCHC) [6] |
| --- | --- | --- | --- | --- | --- | --- | --- | --- | --- |
| COC(=O)C1CCCN1S(=O)(=O)c1ccc(-n2nc(C)c3nc4nnnn4nc32)cc1 (stereo not drawn) [Compound of Formula 2, Methyl 1-[4-(7-methyl-5H-pyrazol[4,3-e]tetrazolo[4,5-b][1,2,4]triazyn-5-yl)phenylsulfonyl]pyrrolidine-2-carboxylate] | 1.1 ± 0.01 µM | 48.9% | 63.8% | – | – | – | – | – | – |
| COC(=O)C1CC(O)CN1S(=O)(=O)c1ccc(-n2nc(C)c3nc4nnnn4nc32)cc1 (stereo not drawn) [Compound of Formula 3, Methyl 4-hydroxy-1-[4-(7-methyl-5H-pyrazolo[4,3-e]tetrazolo[4,5-b][1,2,4]triazyn-5-yl)phenylsulfonyl]pyrrolidine-2-carboxylate] | 3.1 ± 0.02 µM | 49.5% | 71.3% | Statistically significant reduction in tumour weight | statistically significant inhibition of tumour growth | Statistically significant reduction in tumour weight | statistically significant inhibition of tumour growth | No significant differences | did not reveal any statistically significant changes |
